Data as given in article PMC8802806, “Synthesis and Antitumor Activity of Erlotinib Derivatives Linked With 1,2,3-Triazole” (Frontiers in Pharmacology, 2022).
Several values for one entry are separate records, joined by “and”; a condition that tells them apart may be missing. Identical values can stand only once. Like-named read-outs stand apart in the source and are kept apart here.

Columns and labels:
HeLa cells [1] = assay: Cell antiproliferative activity assay (CCK8); type: cell-based, human; details: for inhibition at 0.25 µM: 250 nM; for inhibition at 0.5 µM: 500 nM; for inhibition at 1 µM: 1000 nM; for inhibition at 2 µM: 2000 nM; for inhibition at 4 µM: 4000 nM; for inhibition at 8 µM: 8000 nM; for inhibition at 16 µM: 16000 nM
Procedure, shortened: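 HeLa cell antiproliferative activity was measured with a CCK8 assay. Cells were plated at 2,000 cells per well in 96-well plates and incubated overnight, then exposed to inhibitor dilutions (0.1 nM to 100 μM, 0.1% DMSO) for 48 h. CCK8 was added for 2 h, absorbance was read at 450 nm (reference 630 nm), and IC50 values were calculated in GraphPad Prism 6.0.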

HeLa cells [2] = assay: Flow cytometry detection for cell apoptosis (Annexin V/PI); type: cell-based, human; details: for Q1 (flow cytometry quadrant, Figure 4A) / Q4 (flow cytometry quadrant, Figure 4A) / Q2: FITC-A+ , PE-A+ Freq. of Parent / Q3: FITC-A+ , PE-A- Freq. of Parent: Annexin V/PI; for Q2: FITC-A+ , PE-A+ Freq. of Parent / Q3: FITC-A+ , PE-A- Freq. of Parent / Q2+Q3 (column without head, sum on percent scale): single samples
Method: Cell-apoptosis analysis was carried out by flow cytometry using the Annexin V/PI apoptosis kit (Solarbio, China) according to the manufacturer’s manual. Briefly, HeLa (5 × 10^4/well) cells were seeded in 12-well plates for 24 h and then treated with 0.1% DMSO (as control) or various concentrations of compounds 4d, 4k, and 4l for 72 h, respectively. Cells were harvested, washed with PBS, and then incubated with 100 μl of 1 × Annexin V binding buffer containing 1 μl FITC Annexin V for 10 min at RT in the dark. Cells were incubated for another 5 min at room temperature (RT) in the dark after 1 μl PI was added. PBS (200 µl) was added to each tube for flow cytometry analysis (BriCyte E6). The percentages of apoptotic cells were analyzed using FlowJo soft.

HeLa cells [3] = assay: Flow cytometry detection for cell cycle; type: cell-based, human; details: 6 μM, 48 h
Method: HeLa (5 × 10^4/well) cells were seeded in 12-well plates for 24 h and then treated with 0.1% DMSO (as control), compounds 4d, 4k, and 4l of various concentrations for 48 h, respectively. The treated cells were harvested, washed with PBS, and then stained using the cell-cycle staining kit [Multisciences (Lianke) Biotech] according to the manufacturer’s manual. The distribution of cell-cycle phases with different DNA contents was determined by flow cytometry (BriCyte E6) and analyzed using ModFit LT software.

HeLa cells [4] = assay: Colony formation assay; type: cell-based, human
Method: HeLa cells were seeded in six-well plates at the density of 500/well for 24 h, and then treated with 0.1% DMSO (as control), various concentrations of compounds 4d, 4k, and 4l, respectively. The cells were incubated for 2 weeks in a 5% CO2 environment at 37°C for colony formation. The media was gently removed from each of the plates, and then each plate was washed with PBS twice. The colonies were fixed with 4% polyformaldehyde for 10 min and then wash the cells with ddH2O twice. Stain with 1 ml Crystal Violet Staining Solution (Beyotime, China) for 10 min. Wash excess crystal violet with ddH2O and allow dishes to dry. Take pictures of the plate and count the colonies.

[5] = HeLa cells, CCK8, 48 h, mean ± SD, n = 3, read-out: IC50 (μM) HeLa
[6] = Homo sapiens, HeLa, 48 h, HeLa cells, CCK8, 48 h, mean ± SD, n = 3, read-out: IC50 (μM) HeLa
[7] = Homo sapiens, HeLa, HELA 2000cells/well, supplement DataSheet2, Repeat1, read-out: IC50 Repeat1
[8] = Homo sapiens, HeLa, HELA 2000cells/well, supplement DataSheet2, Repeat 2, read-out: IC50 Repeat 2
[9] = Homo sapiens, HeLa, HELA 2000cells/well, supplement DataSheet2, mean of two repeats ± SD, read-out: IC50 mean±SD
[10] = Homo sapiens, HELA 2000cells/well, Repeat1, read-out: Inhibition (%) Repeat1
[11] = Homo sapiens, HELA 2000cells/well, Repeat2, read-out: Inhibition (%) Repeat2

COCCOc1cc2ncnc(Nc3cccc(-c4cn(-c5ccccc5OC)nn4)c3)c2cc1OCCOC [Compound 4k, [6,7-Bis-(2-methoxy-ethoxy)-quinazolin-4-yl]-{3-[1-(2-methoxy-phenyl)-1H-[1,2,3]triazol-4-yl]-phenyl}-amine]
IC50 (HeLa cells [1]; [5]): 4.16 ± 0.48 µM
IC50 (HeLa cells [1]; [6]): 3.79 µM
IC50 (HeLa cells [1]; [7]): 3.72 µM
IC50 (HeLa cells [1]; [8]): 4.68 µM
IC50 (HeLa cells [1]; [9]): 4.16 ± 0.481 µM
inhibition at 0.25 µM (HeLa cells [1]; [10]): 3.39%
inhibition at 0.25 µM (HeLa cells [1]; [11]): 0%
inhibition at 0.5 µM (HeLa cells [1]; [10]): 4.2%
inhibition at 0.5 µM (HeLa cells [1]; [11]): 6.96%
inhibition at 1 µM (HeLa cells [1]; [10]): 8.3%
inhibition at 1 µM (HeLa cells [1]; [11]): 7.05%
inhibition at 2 µM (HeLa cells [1]; [10]): 22.3%
inhibition at 2 µM (HeLa cells [1]; [11]): 10.7%
inhibition at 4 µM (HeLa cells [1]; [10]): 48.8%
inhibition at 4 µM (HeLa cells [1]; [11]): 43.1%
inhibition at 8 µM (HeLa cells [1]; [10]): 90.1%
inhibition at 8 µM (HeLa cells [1]; [11]): 73.9%
inhibition at 16 µM (HeLa cells [1]; [10]): 96.8%
inhibition at 16 µM (HeLa cells [1]; [11]): 97%
Q1 (flow cytometry quadrant, Figure 4A) (HeLa cells [2]; 3 μM, 72 h): 2.64%
Q4 (flow cytometry quadrant, Figure 4A) (HeLa cells [2]; 3 μM, 72 h): 93.0%
Q2: FITC-A+ , PE-A+ Freq. of Parent (HeLa cells [2]; 3 μM, 72 h): 3.63%
Q3: FITC-A+ , PE-A- Freq. of Parent (HeLa cells [2]; 3 μM, 72 h): 0.75%
Q1 (flow cytometry quadrant, Figure 4A) (HeLa cells [2]; 6 μM, 72 h): 8.66%
Q4 (flow cytometry quadrant, Figure 4A) (HeLa cells [2]; 6 μM, 72 h): 64.2%
Q2: FITC-A+ , PE-A+ Freq. of Parent (HeLa cells [2]; 6 μM, 72 h): 21.9%
Q3: FITC-A+ , PE-A- Freq. of Parent (HeLa cells [2]; 6 μM, 72 h): 5.30%
Q1 (flow cytometry quadrant, Figure 4A) (HeLa cells [2]; 12 μM, 72 h): 24.0%
Q4 (flow cytometry quadrant, Figure 4A) (HeLa cells [2]; 12 μM, 72 h): 11.6%
Q2: FITC-A+ , PE-A+ Freq. of Parent (HeLa cells [2]; 12 μM, 72 h): 61.9%
Q3: FITC-A+ , PE-A- Freq. of Parent (HeLa cells [2]; 12 μM, 72 h): 2.53%
cell cycle phase at which HeLa cells were arrested (HeLa cells [3]): both G0/G1 and G2/M
melting point: 87 to 90 °C

COCCOc1cc2ncnc(Nc3cccc(-c4cn(-c5ccc(C)cc5)nn4)c3)c2cc1OCCOC [Compound 4l, [6,7-Bis-(2-methoxy-ethoxy)-quinazolin-4-yl]-[3-(1-p-tolyl-1H-[1,2,3]triazol-4-yl)-phenyl]-amine]
IC50 (HeLa cells [1]; [5]): 4.51 ± 0.08 µM
IC50 (HeLa cells [1]; [6]): 4.36 µM
IC50 (HeLa cells [1]; [7]): 4.41 µM
IC50 (HeLa cells [1]; [8]): 4.58 µM
IC50 (HeLa cells [1]; [9]): 4.51 ± 0.083 µM
inhibition at 0.25 µM (HeLa cells [1]; [10]): 2.96%
inhibition at 0.25 µM (HeLa cells [1]; [11]): 0%
inhibition at 0.5 µM (HeLa cells [1]; [10]): 5.57%
inhibition at 0.5 µM (HeLa cells [1]; [11]): 0.522%
inhibition at 1 µM (HeLa cells [1]; [10]): 8.62%
inhibition at 1 µM (HeLa cells [1]; [11]): 4.7%
inhibition at 2 µM (HeLa cells [1]; [10]): 12.6%
inhibition at 2 µM (HeLa cells [1]; [11]): 6.88%
inhibition at 4 µM (HeLa cells [1]; [10]): 37.2%
inhibition at 4 µM (HeLa cells [1]; [11]): 32%
inhibition at 8 µM (HeLa cells [1]; [10]): 96.7%
inhibition at 8 µM (HeLa cells [1]; [11]): 96.9%
inhibition at 16 µM (HeLa cells [1]; [10]): 99%
inhibition at 16 µM (HeLa cells [1]; [11]): 98.9%
Q1 (flow cytometry quadrant, Figure 4A) (HeLa cells [2]; 3 μM, 72 h): 3.78%
Q4 (flow cytometry quadrant, Figure 4A) (HeLa cells [2]; 3 μM, 72 h): 84.8%
Q2: FITC-A+ , PE-A+ Freq. of Parent (HeLa cells [2]; 3 μM, 72 h): 9.69%
Q3: FITC-A+ , PE-A- Freq. of Parent (HeLa cells [2]; 3 μM, 72 h): 1.71%
Q2: FITC-A+ , PE-A+ Freq. of Parent (HeLa cells [2]; 3 μM, 72 h, listed as e12): 9.69% and 6.86% and 8.36%
Q3: FITC-A+ , PE-A- Freq. of Parent (HeLa cells [2]; 3 μM, 72 h, listed as e12): 1.71% and 1.25% and 0.95%
Q2+Q3 (column without head, sum on percent scale) (HeLa cells [2]; 3 μM, listed as e12): 11.4 and 8.11 and 9.31
Q1 (flow cytometry quadrant, Figure 4A) (HeLa cells [2]; 6 μM, 72 h): 3.76%
Q4 (flow cytometry quadrant, Figure 4A) (HeLa cells [2]; 6 μM, 72 h): 83.5%
Q2: FITC-A+ , PE-A+ Freq. of Parent (HeLa cells [2]; 6 μM, 72 h): 11.1%
Q3: FITC-A+ , PE-A- Freq. of Parent (HeLa cells [2]; 6 μM, 72 h): 1.72%
Q2: FITC-A+ , PE-A+ Freq. of Parent (HeLa cells [2]; 6 μM, 72 h, listed as e12): 8.62% and 11.1% and 7.43%
Q3: FITC-A+ , PE-A- Freq. of Parent (HeLa cells [2]; 6 μM, 72 h, listed as e12): 1.73% and 1.72% and 1.32%
Q2+Q3 (column without head, sum on percent scale) (HeLa cells [2]; 6 μM, listed as e12): 10.35 and 12.82 and 8.75
Q1 (flow cytometry quadrant, Figure 4A) (HeLa cells [2]; 12 μM, 72 h): 4.50%
Q4 (flow cytometry quadrant, Figure 4A) (HeLa cells [2]; 12 μM, 72 h): 78.5%
Q2: FITC-A+ , PE-A+ Freq. of Parent (HeLa cells [2]; 12 μM, 72 h): 14.1%
Q3: FITC-A+ , PE-A- Freq. of Parent (HeLa cells [2]; 12 μM, 72 h): 2.91%
Q2: FITC-A+ , PE-A+ Freq. of Parent (HeLa cells [2]; 12 μM, 72 h, listed as e12): 14.8% and 14.1% and 12.5%
Q3: FITC-A+ , PE-A- Freq. of Parent (HeLa cells [2]; 12 μM, 72 h, listed as e12): 2.43% and 2.91% and 2.33%
cell apoptosis in HeLa cells, percentage (HeLa cells [2]; 12 μM, 72 h, three independent experiments): 16.36%
Q2+Q3 (column without head, sum on percent scale) (HeLa cells [2]; 12 μM, listed as e12): 17.23 and 17.01 and 14.83
Number of Colonies /well (HeLa cells [4]; 6 uM, repeats 1-3): 291 and 246 and 217
effect on cell colony formation (HeLa cells [4]; 12 μM, 2 weeks): entirely inhibited
melting point: 95 to 98 °C
